Test results reported in PMC8963254, “Effects of Lysine N-ζ-Methylation in Ultrashort Tetrabasic Lipopeptides (UTBLPs) on the Potentiation of Rifampicin, Novobiocin, and Niclosamide in Gram-Negative Bacteria” (Antibiotics, 2022).
Where two headings read alike, the source gives them in different places. Non-standard residues stand in square brackets, D forms with d. Residues, ends and D or L forms follow the SMILES beside them. *: point of attachment. Lys(Me3) = C[N+](C)(C)CCCC[C@H](N)C(=O)O; Octanoyl = CCCCCCCC(=O)*

Tests used:
A. baumannii ATCC 17978 = assay type: cell-based, Acinetobacter baumannii; settings: ATCC 17978, 18 h
Outline: (§1)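 Minimum inhibitory concentration came from a CLSI broth dilution assay: 18 h at 37 °C, inoculum 5 × 10^5 CFU/mL final.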

E. coli ATCC 25922 [1] = assay type: cell-based, Escherichia coli; settings: ATCC 25922, 18 h
Outline: as §1

MRSA ATCC 33592 = assay type: cell-based, Staphylococcus aureus; settings: ATCC 33592, 18 h
Outline: as §1

S. aureus ATCC 29213 = assay type: cell-based, Staphylococcus aureus; settings: ATCC 29213, 18 h
Outline: as §1

E. coli 94393 [2] = test: microbe, parasite or virus in culture; assay type: cell-based, Escherichia coli; settings: 94393, 18 h
Outline: as §1

E. coli 94474 [3] = test: microbe, parasite or virus in culture; assay type: cell-based, Escherichia coli; settings: 94474, 18 h
Outline: as §1

K. pneumoniae 113250 = test: microbe, parasite or virus in culture; assay type: cell-based, Klebsiella pneumoniae; settings: 113250, 18 h
Outline: as §1

MRSE 61589 = assay type: cell-based, Staphylococcus epidermidis; settings: 61589, 18 h
Outline: as §1

MSSE 81388 = assay type: cell-based, Staphylococcus epidermidis; settings: 18 h
Outline: as §1

A. baumannii 92247 = assay type: cell-based, Acinetobacter baumannii; settings: for MICUTBLP: UTBLP alone
Outline: (§2)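 Values derive from a two-agent checkerboard with an 18 h, 37 °C incubation. FICI cut-offs: ≤0.5 synergy, 0.5–4 additive, >4 antagonism.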

A. baumannii AB027 = assay type: cell-based, Acinetobacter baumannii; settings: for MICUTBLP: UTBLP alone
Outline: as §2

E. coli 94393 [4] = assay type: cell-based, Escherichia coli; settings: for MICUTBLP: UTBLP alone
Outline: as §2

E. coli 94474 [5] = assay type: cell-based, Escherichia coli; settings: for MICUTBLP: UTBLP alone
Outline: as §2

E. coli ATCC 25922 [6] = assay type: cell-based, Escherichia coli; settings: for MICUTBLP: UTBLP alone
Outline: as §2

E. faecalis ATCC 29212 = assay type: cell-based, Enterococcus faecalis
Outline: as §2

E. faecium ATCC 27270 = assay type: cell-based, Enterococcus faecium
Outline: as §2

[7] = UTBLP in combination with novobiocin
[8] = UTBLP in combination with rifampicin
[9] = novobiocin in combination with the UTBLP
[10] = rifampicin in combination with the UTBLP
[11] = UTBLP in combination with chloramphenicol
[12] = chloramphenicol in combination with the UTBLP
[13] = UTBLP alone, plate with chloramphenicol

SMILES: CCCCCCCC(=O)NCCCC[C@H](NC(=O)CCCCCCC)C(=O)N[C@@H](CCCC[N+](C)(C)C)C(=O)N[C@@H](CCCC[N+](C)(C)C)C(=O)N[C@@H](CCCC[N+](C)(C)C)C(=O)N[C@@H](CCCC[N+](C)(C)C)C(N)=O [UTBLP 8] (Octanoyl-K(Octanoyl)[Lys(Me3)][Lys(Me3)][Lys(Me3)][Lys(Me3)]-NH2)
- MIC (A. baumannii ATCC 17978): >128 µg/mL
- MIC (E. coli ATCC 25922 [1]): >128 µg/mL
- MIC (MRSA ATCC 33592): >128 µg/mL
- MIC (S. aureus ATCC 29213): >128 µg/mL
- MIC (E. coli 94393 [2]): 128 µg/mL
- MIC (E. coli 94474 [3]): > 128 µg/mL
- MIC (K. pneumoniae 113250): > 128 µg/mL
- MIC (MRSE 61589): 128 µg/mL
- MIC (MSSE 81388): 128 µg/mL
- Interpretation (A. baumannii 92247; UTBLP + novobiocin): Synergy (FICI ≤ 0.5 is synergistic)
- Interpretation (A. baumannii 92247; UTBLP + rifampicin): Synergy (FICI ≤ 0.5 is synergistic)
- MICUTBLP (A. baumannii 92247; plate with novobiocin): 128 µg/mL
- MICUTBLP (A. baumannii 92247; plate with rifampicin): 128 µg/mL
- MICUTBLP [MICcombo] (A. baumannii 92247; [7]): 16 µg/mL
- MICUTBLP [MICcombo] (A. baumannii 92247; [8]): 16 µg/mL
- MICantibiotic [MICcombo] (A. baumannii 92247; [9]): 0.125 µg/mL
- MICantibiotic [MICcombo] (A. baumannii 92247; [10]): 0.5 µg/mL
- Interpretation (A. baumannii AB027; UTBLP + novobiocin): Synergy (FICI ≤ 0.5 is synergistic)
- Interpretation (A. baumannii AB027; UTBLP + rifampicin): Synergy (FICI ≤ 0.5 is synergistic)
- MICUTBLP (A. baumannii AB027; plate with novobiocin): > 128 µg/mL
- MICUTBLP (A. baumannii AB027; plate with rifampicin): > 128 µg/mL
- MICUTBLP [MICcombo] (A. baumannii AB027; [7]): 16 µg/mL
- MICUTBLP [MICcombo] (A. baumannii AB027; [8]): 16 µg/mL
- MICantibiotic [MICcombo] (A. baumannii AB027; [9]): 2 µg/mL
- MICantibiotic [MICcombo] (A. baumannii AB027; [10]): 0.25 µg/mL
- Interpretation (E. coli 94393 [4]; UTBLP + novobiocin): Synergy (FICI ≤ 0.5 is synergistic)
- Interpretation (E. coli 94393 [4]; UTBLP + rifampicin): Additive (0.5 < x ≤ 4 is additive)
- MICUTBLP (E. coli 94393 [4]; plate with novobiocin): 128 µg/mL
- MICUTBLP (E. coli 94393 [4]; plate with rifampicin): 128 µg/mL
- MICUTBLP [MICcombo] (E. coli 94393 [4]; [7]): 16 µg/mL
- MICUTBLP [MICcombo] (E. coli 94393 [4]; [8]): 16 µg/mL
- MICantibiotic [MICcombo] (E. coli 94393 [4]; [9]): 16 µg/mL
- Interpretation (E. coli 94474 [5]; UTBLP + novobiocin): Synergy (FICI ≤ 0.5 is synergistic)
- Interpretation (E. coli 94474 [5]; UTBLP + rifampicin): Additive (0.5 < x ≤ 4 is additive)
- MICUTBLP (E. coli 94474 [5]; plate with novobiocin): > 128 µg/mL
- MICUTBLP (E. coli 94474 [5]; plate with rifampicin): > 128 µg/mL
- MICUTBLP [MICcombo] (E. coli 94474 [5]; [7]): 8 µg/mL
- MICUTBLP [MICcombo] (E. coli 94474 [5]; [8]): 16 µg/mL
- MICantibiotic [MICcombo] (E. coli 94474 [5]; [9]): 64 µg/mL
- MICantibiotic [MICcombo] (E. coli 94474 [5]; [10]): 4 µg/mL
- Interpretation (E. coli ATCC 25922 [6]; UTBLP + chloramphenicol): Synergy (FICI ≤ 0.5 is synergistic)
- Interpretation (E. coli ATCC 25922 [6]; UTBLP + niclosamide): Synergy (FICI ≤ 0.5 is synergistic)
- Interpretation (E. coli ATCC 25922 [6]; UTBLP + novobiocin): Synergy (FICI ≤ 0.5 is synergistic)
- Interpretation (E. coli ATCC 25922 [6]; UTBLP + rifampicin): Additive (0.5 < x ≤ 4 is additive)
- MICUTBLP (E. coli ATCC 25922 [6]; plate with chloramphenicol): > 128 µg/mL
- MICUTBLP (E. coli ATCC 25922 [6]; plate with niclosamide): > 128 µg/mL
- MICUTBLP (E. coli ATCC 25922 [6]; plate with novobiocin): > 128 µg/mL
- MICUTBLP (E. coli ATCC 25922 [6]; plate with rifampicin): > 128 µg/mL
- MICUTBLP [MICcombo] (E. coli ATCC 25922 [6]; [11]): 8 µg/mL
- MICUTBLP [MICcombo] (E. coli ATCC 25922 [6]; UTBLP in combination with niclosamide): 8 µg/mL
- MICUTBLP [MICcombo] (E. coli ATCC 25922 [6]; [7]): 16 µg/mL
- MICUTBLP [MICcombo] (E. coli ATCC 25922 [6]; [8]): 16 µg/mL
- MICantibiotic [MICcombo] (E. coli ATCC 25922 [6]; [12]): 2 µg/mL
- MICantibiotic [MICcombo] (E. coli ATCC 25922 [6]; niclosamide in combination with the UTBLP): 8 µg/mL
- MICantibiotic [MICcombo] (E. coli ATCC 25922 [6]; [9]): 2 µg/mL
- MICantibiotic [MICcombo] (E. coli ATCC 25922 [6]; [10]): 1 µg/mL
- Interpretation (E. faecalis ATCC 29212; UTBLP + chloramphenicol): Additive (0.5 < x ≤ 4 is additive)
- MICUTBLP (E. faecalis ATCC 29212; [13]): 128 µg/mL
- MICUTBLP [MICcombo] (E. faecalis ATCC 29212; [11]): 16 µg/mL
- MICchloramphenicol [MICcombo] (E. faecalis ATCC 29212; [12]): 4 µg/mL
- Interpretation (E. faecium ATCC 27270; UTBLP + chloramphenicol): Additive (0.5 < x ≤ 4 is additive)
- MICUTBLP (E. faecium ATCC 27270; [13]): > 128 µg/mL
- MICUTBLP [MICcombo] (E. faecium ATCC 27270; [11]): 0.25 µg/mL
- MICchloramphenicol [MICcombo] (E. faecium ATCC 27270; [12]): 4 µg/mL
